Measurements as given in ChEMBL document CHEMBL1201862, “PubChem BioAssay data set” (2004).
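Step 1: Grow cells in 96-well plates. Step 2: Expose to compound for 48 hours at 5 concentrations. Step 3: Interpolate endpoints linearly; if unreached, use highest concentration. GI50 is the concentration that inhibits growth by half.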 The source made the active and inactive calls. No stated cut-off is given here; in the data, active = GI50 up to about 1.1 µM and inactive = higher.

Experiments:
Assay in all cases: inhibition of tumour cell growth, NCI panel, 48 h
OVCAR-4 = test system: OVCAR-4
U-251 = test system: U-251
MOLT-4 = test system: MOLT-4
PC-3 = test system: PC-3
MDA-N = test system: MDA-N
SK-MEL-28 = test system: SK-MEL-28
OVCAR-3 = test system: OVCAR-3
UO-31 = test system: UO-31
SK-OV-3 = test system: SK-OV-3
COLO 205 = test system: COLO 205
A549 = test system: A549
DU-145 = test system: DU-145
SF-268 = test system: SF-268
NCI-H23 = test system: NCI-H23
HL-60 = test system: HL-60
K562 = test system: K562
KM12 = test system: KM12
HOP-62 = test system: HOP-62
IGROV-1 = test system: IGROV-1
RXF 393 = test system: RXF 393

Measured: GI50

Nc1ccc(Cc2c(N)[nH]c(=O)[nH]c2=O)cc1
inactive: OVCAR-4 > 100 µM | U-251 > 100 µM | MOLT-4 1.61 µM | PC-3 > 100 µM | MDA-N > 100 µM | SK-MEL-28 > 100 µM | OVCAR-3 > 100 µM | UO-31 > 100 µM | SK-OV-3 > 100 µM | COLO 205 > 100 µM | A549 > 100 µM | DU-145 > 100 µM | SF-268 > 100 µM | NCI-H23 > 100 µM | HL-60 85.5 µM | K562 > 100 µM

CC1(F)C=CC(=O)C=C1
inactive: OVCAR-4 79.3 µM | U-251 24.7 µM | MOLT-4 26.4 µM | PC-3 69.7 µM | MDA-N 33.2 µM | SK-MEL-28 > 100 µM | OVCAR-3 > 100 µM | UO-31 23.6 µM | KM12 > 100 µM | SK-OV-3 > 100 µM | COLO 205 > 100 µM | A549 > 100 µM | HOP-62 > 100 µM | DU-145 > 100 µM | SF-268 > 100 µM | NCI-H23 > 100 µM | HL-60 27.6 µM | K562 44 µM

CO[C@H](C)[C@](O)(C(=O)OCC1=CCN2CC[C@@H](O)[C@H]12)C(C)C
inactive: OVCAR-4 > 100 µM | U-251 > 100 µM | MOLT-4 > 100 µM | PC-3 > 100 µM | MDA-N > 100 µM | SK-MEL-28 > 100 µM | OVCAR-3 > 100 µM | UO-31 > 100 µM | KM12 > 100 µM | SK-OV-3 > 100 µM | COLO 205 > 100 µM | A549 > 100 µM | IGROV-1 > 100 µM | HOP-62 > 100 µM | DU-145 > 100 µM | SF-268 > 100 µM | NCI-H23 > 100 µM | HL-60 > 10 µM | K562 > 100 µM

CCCn1c(SC)nc(COC(=O)NC)c1COC(=O)NC
inactive: OVCAR-4 > 100 µM | MOLT-4 > 100 µM | PC-3 > 100 µM | MDA-N > 100 µM | SK-MEL-28 > 100 µM | OVCAR-3 > 100 µM | UO-31 > 100 µM | KM12 > 100 µM | SK-OV-3 > 100 µM | COLO 205 > 100 µM | A549 > 100 µM | IGROV-1 > 100 µM | HOP-62 > 100 µM | DU-145 > 100 µM | SF-268 > 100 µM | NCI-H23 > 100 µM | HL-60 > 100 µM | K562 > 100 µM

O=C(/C=C1/Nc2ccc([N+](=O)[O-])cc2N/C1=C/C(=O)c1ccccc1)c1ccccc1
inactive: OVCAR-4 5.6 µM | U-251 13.5 µM | MOLT-4 22.5 µM | PC-3 43.7 µM | MDA-N > 100 µM | RXF 393 14.3 µM | OVCAR-3 16.7 µM | UO-31 18.6 µM | KM12 59.4 µM | SK-OV-3 23 µM | COLO 205 53.6 µM | A549 36.3 µM | IGROV-1 25.3 µM | HOP-62 12.1 µM | DU-145 43.7 µM | SF-268 15.2 µM | NCI-H23 12.4 µM | K562 32.8 µM

CNC1=Nc2ccccc2C(=O)N2CSCC12 (stereo not given)
inactive: OVCAR-4 > 100 µM | U-251 > 100 µM | MOLT-4 > 100 µM | PC-3 > 100 µM | MDA-N > 100 µM | SK-MEL-28 > 100 µM | RXF 393 > 100 µM | OVCAR-3 > 100 µM | UO-31 > 100 µM | KM12 > 100 µM | SK-OV-3 > 100 µM | COLO 205 > 100 µM | A549 > 100 µM | IGROV-1 > 100 µM | HOP-62 > 100 µM | DU-145 > 100 µM | SF-268 > 100 µM | K562 > 100 µM

Cc1cccc(/C=N/NC(=S)NCc2ccccn2)n1
inactive: OVCAR-4 > 100 µM | U-251 20.7 µM | MOLT-4 16.5 µM | PC-3 18.5 µM | MDA-N 47.2 µM | SK-MEL-28 45.8 µM | OVCAR-3 74.5 µM | UO-31 14.8 µM | KM12 40.3 µM | SK-OV-3 28.3 µM | COLO 205 36.1 µM | A549 27.1 µM | IGROV-1 24 µM | HOP-62 22.2 µM | DU-145 15.1 µM | SF-268 20 µM | NCI-H23 40.8 µM | HL-60 23.4 µM | K562 36.1 µM

CC(C)(C)c1ccccc1N1C(=O)c2ccc3c4c(ccc(c24)C1=O)N(c1ccccc1C(C)(C)C)C3=O
inactive: OVCAR-4 > 100 µM | U-251 > 100 µM | MOLT-4 5.46 µM | PC-3 20 µM | MDA-N > 100 µM | SK-MEL-28 > 100 µM | RXF 393 > 100 µM | OVCAR-3 > 100 µM | UO-31 > 100 µM | KM12 > 100 µM | SK-OV-3 > 100 µM | COLO 205 > 100 µM | A549 > 100 µM | IGROV-1 > 100 µM | HOP-62 > 100 µM | DU-145 > 100 µM | SF-268 > 100 µM | NCI-H23 > 100 µM | K562 > 100 µM
